Measured values taken from patent publication US6316414A, “Somatostatin analogs for the treatment of cancer” (Dabur Research Foundation, priority 2000, dated 2001).

System: human colon adenocarcinoma (PTC) xenografts
Assay: In vivo antitumor activity on PTC xenografts in nude mice
Set-up: species or system Balb/c athymic mice
Details: for percentage inhibition of tumor growth as compared to controls: 8.5 μg/100 μl intravenously twice a day for 10 days
Procedure: The antitumor activity of SEQ ID NO:2 and SEQ ID NO:3 was studied in human colon adenocarcinoma (PTC) xenografts in nude mice. PTC tumor xenografts were grown in Balb/c athymic mice by subcutaneous inoculation of a single cell suspension of PTC cells (15×10^6 cells/100 μl). The tumor bearing animals were divided into 3 groups of three animals each including one group comprising untreated control animals. Treatment with novel somatostatin analogs was initiated when the average tumor volumes, as measured using a vernier caliper, were between 400-800 mm^3. Solutions of SEQ ID NO:2 and SEQ ID NO:3 were prepared at a concentration of 85 μg/ml and intravenously administered to the assigned group of tumor bearing animals at a dose of 8.5 μg/100 μl twice a day so that the total dose of […] was administered to each animal. The treatment was continued for a period of 10 days.
The antitumor activity of the compounds was monitored by measuring tumor volumes every fourth day using the formula W*W*L*[…] (W=smaller diameter, L=larger diameter). The percentage inhibition of tumor growth was calculated using the formula (1-tumor volume-treated/tumor volume control)* 100.

[1] = day 0, average of three animals
[2] = day 9, average of three animals
[3] = day 13, average of three animals
[4] = day 18, average of three animals
[5] = day 21, average of three animals

Substance: D-Phe-Cys-Tyr-D-Trp-Orn-Ac5c-Pen-Thr-NH2 [SEQ ID NO: 3]
- tumor volume, individual animal (animal I, day 0): 0 mm^3
- tumor volume, individual animal (animal I, day 9): 560 mm^3
- tumor volume, individual animal (animal I, day 13): 1946 mm^3
- tumor volume, individual animal (animal I, day 18): 3177 mm^3
- tumor volume, individual animal (animal I, day 21): 0 mm^3
- tumor volume, individual animal (animal II, day 0): 0 mm^3
- tumor volume, individual animal (animal II, day 9): 774 mm^3
- tumor volume, individual animal (animal II, day 13): 1800 mm^3
- tumor volume, individual animal (animal II, day 18): 3610 mm^3
- tumor volume, individual animal (animal II, day 21): 4939 mm^3
- tumor volume, individual animal (animal III, day 0): 0 mm^3
- tumor volume, individual animal (animal III, day 9): 324 mm^3
- tumor volume, individual animal (animal III, day 13): 1530 mm^3
- tumor volume, individual animal (animal III, day 18): 4234 mm^3
- tumor volume, individual animal (animal III, day 21): 7301 mm^3
- tumor volume, Avg [1]: 0 mm^3
- tumor volume, Avg [2]: 552 mm^3
- tumor volume, Avg [3]: 1758 mm^3
- tumor volume, Avg [4]: 3674 mm^3
- tumor volume, Avg [5]: 4080 mm^3
- percentage inhibition of tumor growth as compared to controls (day 21): 54.7%

Substance: D-Phe-Cys-Tyr-D-Trp-Orn-Deg-Pen-Thr-NH2 [SEQ ID NO: 2]
- tumor volume, individual animal (animal IV, day 0): 0 mm^3
- tumor volume, individual animal (animal IV, day 9): 480 mm^3
- tumor volume, individual animal (animal IV, day 13): 1254 mm^3
- tumor volume, individual animal (animal IV, day 18): 1965 mm^3
- tumor volume, individual animal (animal IV, day 21): 491 mm^3
- tumor volume, individual animal (animal V, day 0): 0 mm^3
- tumor volume, individual animal (animal V, day 9): 678 mm^3
- tumor volume, individual animal (animal V, day 13): 2196 mm^3
- tumor volume, individual animal (animal V, day 18): 5240 mm^3
- tumor volume, individual animal (animal V, day 21): 4839 mm^3
- tumor volume, individual animal (animal VI, day 0): 0 mm^3
- tumor volume, individual animal (animal VI, day 9): 806 mm^3
- tumor volume, individual animal (animal VI, day 13): 2333 mm^3
- tumor volume, individual animal (animal VI, day 18): 4453 mm^3
- tumor volume, individual animal (animal VI, day 21): 6250 mm^3
- tumor volume, Avg [1]: 0 mm^3
- tumor volume, Avg [2]: 654 mm^3
- tumor volume, Avg [3]: 1927 mm^3
- tumor volume, Avg [4]: 3886 mm^3
- tumor volume, Avg [5]: 3860 mm^3
- percentage inhibition of tumor growth as compared to controls (day 21): 57.1%
